Legend:
LDHA = LDHA (Homo sapiens, UniProt P00338); experiment: Biochemical LDHA inhibition assay
A673 cells [1] = experiment: Cellular lactate production assay in A673 cells; type: cell-based, human; settings: for IC50: Homo sapiens, A673, 0.5 h, read-out: A673 cells lactate inh. IC50
A673 cells [2] = experiment: Cytotoxicity assay in A673 cells; type: cell-based, human; settings: for IC50: Homo sapiens, A673, 48 h, read-out: A673 cells Cytotox. IC50
MiaPaCa-2 cells [3] = experiment: Cellular lactate production assay in MiaPaCa-2 cells; type: cell-based; settings: Homo sapiens, MIA PaCa-2, 0.5 h, read-out: MiaPaCa-2 cells lactate inh. IC50
MiaPaCa-2 cells [4] = experiment: Cytotoxicity assay in MiaPaCa-2 cells; type: cell-based; settings: Homo sapiens, MIA PaCa-2, 48 h, read-out: MiaPaCa-2 cells Cytotox. IC50
[5] = molecular target: LDHA with C-terminal HiBiT fusion tag (Homo sapiens, UniProt P00338); experiment: SplitLuc CETSA; type: cell-based
[6] = Mouse pharmacokinetic studies; type: in vivo, CD1 mice; settings: male, CD1, mouse, plasma, iv, 10 mg/kg
[7] = test system: tumor LDH activity (A673 flank xenograft); experiment: In vivo LDHA activity in A673 xenograft tumor mouse model; settings: single IV 50 mg/kg, A673 xenograft mice
[8] = both cell lines (A673 and MiaPaCa-2)

SMILES | IC50 (LDHA) [nM] | IC50 (A673 cells [1]) [nM] | IC50 (MiaPaCa-2 cells [3]) [nM] | IC50 [5] [nM] | IC50 (A673 cells [2]) [nM] | other results
NS(=O)(=O)c1ccc(Cc2c(-c3ccc(F)c(C#CC4(O)CCCC4)c3)nn(-c3nc(C(=O)O)cs3)c2CC2CC2)cc1F [Compound 25, 2-(5-(Cyclopropylmethyl)-3-(4-fluoro-3-((1-hydroxycyclopentyl)-ethynyl)phenyl)-4-(3-fluoro-4-sulfamoylbenzyl)-1H-pyrazol-1-yl)-thiazole-4-carboxylic Acid] | 7 | 1930 | 1480 | 150 | 2190 | IC50 (MiaPaCa-2 cells [4]): 2180 nM
NS(=O)(=O)c1ccc(Cc2c(-c3ccc(F)c(/C=C/C4CCCC4)c3)nn(-c3nc(C(=O)O)cs3)c2CC2CC2)cc1F [Compound 69, (E)-2-(3-(3-(2-Cyclopentylvinyl)-4-fluorophenyl)-5-(cyclopropylmethyl)-4-(3-fluoro-4-sulfamoylbenzyl)-1H-pyrazol-1-yl)thiazole-4-carboxylic Acid] | – | – | – | – | – | clearance at 24 h [6]: 74.7 mL/min/kg; effect on LDH activity in tumors (in words) [7]: less effects
C/C=C/c1cc(-c2nn(-c3nc(C(=O)O)cs3)c(CC3CC3)c2Cc2ccc(S(N)(=O)=O)c(F)c2)ccc1F [Compound 71, (E)-2-(5-(Cyclopropylmethyl)-3-(4-fluoro-3-(prop-1-en-1-yl)phenyl)-4-(3-fluoro-4-sulfamoylbenzyl)-1H-pyrazol-1-yl)thiazole-4carboxylic Acid] | – | – | – | – | – | effect on LDH activity in tumors (in words) [7]: less effects
NS(=O)(=O)c1ccc(Cc2c(-c3ccc(F)c(C#CC4(F)COC4)c3)nn(-c3nc(C(=O)O)cs3)c2CC2CC2)cc1F [Compound 27, 2-(5-(Cyclopropylmethyl)-3-(4-fluoro-3-((3-fluorooxetan-3-yl)-ethynyl)phenyl)-4-(3-fluoro-4-sulfamoylbenzyl)-1H-pyrazol-1-yl)-thiazole-4-carboxylic Acid] | 7 | 1320 | 1050 | 126 | 2650 | IC50 (MiaPaCa-2 cells [4]): 2260 nM
NS(=O)(=O)c1ccc(Cc2c(-c3ccc(F)c(C#CC4(F)CCCC4)c3)nn(-c3nc(C(=O)O)cs3)c2CC2CC2)cc1F [Compound 24, 2-(5-(Cyclopropylmethyl)-3-(4-fluoro-3-((1-fluorocyclopentyl)-ethynyl)phenyl)-4-(3-fluoro-4-sulfamoylbenzyl)-1H-pyrazol-1-yl)-thiazole-4-carboxylic Acid] | 33 | 450 | 454 | 95 | 689 | IC50 (MiaPaCa-2 cells [4]): 593 nM
Cc1ncc(C#Cc2cc(-c3nn(-c4nc(C(=O)O)cs4)c(CC4CC4)c3Cc3ccc(S(N)(=O)=O)c(F)c3)ccc2F)s1 [Compound 46, 2-(5-(Cyclopropylmethyl)-3-(4-fluoro-3-((2-methylthiazol-5-yl)-ethynyl)phenyl)-4-(3-fluoro-4-sulfamoylbenzyl)-1H-pyrazol-1-yl)-thiazole-4-carboxylic Acid] | – | – | – | – | – | clearance at 24 h [6]: 97 mL/min/kg
NS(=O)(=O)c1ccc(Cc2c(-c3ccc(F)c(C#CC4(O)COC4)c3)nn(-c3nc(C(=O)O)cs3)c2CC2CC2)cc1F [Compound 28, 2-(5-(Cyclopropylmethyl)-3-(4-fluoro-3-((3-hydroxyoxetan-3-yl)-ethynyl)phenyl)-4-(3-fluoro-4-sulfamoylbenzyl)-1H-pyrazol-1-yl)-thiazole-4-carboxylic Acid] | 6 | 12200 | 4870 | 1500 | 3590 | IC50 (MiaPaCa-2 cells [4]): 2990 nM
Cc1ccc(C#Cc2cc(-c3nn(-c4nc(C(=O)O)cs4)c(CCC4CC4)c3Cc3ccc(S(N)(=O)=O)c(F)c3)ccc2F)s1 [Compound 74, 2-(5-(2-Cyclopropylethyl)-3-(4-fluoro-3-((5-methylthiophen-2yl)ethynyl)phenyl)-4-(3-fluoro-4-sulfamoylbenzyl)-1H-pyrazol-1-yl)thiazole-4-carboxylic Acid] | – | – | – | – | – | AUC(0-t) [6]: 6650 ng·h/mL; clearance [6]: 74.7 mL/min/kg; effect on LDH activity in tumors (in words) [7]: moderate inhibition
Cc1ccc(C#Cc2cc(-c3nn(-c4nc(C(=O)O)cs4)c(CC4CC4)c3Cc3ccc(S(N)(=O)=O)c(F)c3)ccc2F)o1 [Compound 44, 2-(5-(Cyclopropylmethyl)-3-(4-fluoro-3-((5-methylfuran-2-yl)-ethynyl)phenyl)-4-(3-fluoro-4-sulfamoylbenzyl)-1H-pyrazol-1-yl)-thiazole-4-carboxylic Acid] | – | – | – | – | – | clearance at 24 h [6]: 75 mL/min/kg
Cc1ccc(C#Cc2cccc(-c3nn(-c4nc(C(=O)O)cs4)c(CC4CC4)c3Cc3ccc(S(N)(=O)=O)c(F)c3)c2)o1 [Compound 61, 2-(5-(Cyclopropylmethyl)-4-(3-fluoro-4-sulfamoylbenzyl)-3-(3-((5-methylfuran-2-yl)ethynyl)phenyl)-1H-pyrazol-1-yl)thiazole-4-carboxylic Acid] | – | – | – | – | – | clearance at 24 h [6]: 72.3 mL/min/kg
C#Cc1cc(-c2nn(-c3nc(C(=O)O)cs3)c(CC3CC3)c2Cc2ccc(S(N)(=O)=O)c(F)c2)ccc1F [Compound 11, 2-(5-(Cyclopropylmethyl)-3-(3-ethynyl-4-fluorophenyl)-4-(3-fluoro-4-sulfamoylbenzyl)-1H-pyrazol-1-yl)thiazole-4-carboxylic Acid] | – | – | – | – | – | loss in potency toward lactate output relative to 10 (A673 cells [1]; [8]): < 2 fold; loss in potency in cytotoxicity relative to 10 (A673 cells [2]; [8]): < 3 fold
Cc1ccc(C#Cc2cccc(-c3nn(-c4nc(C(=O)O)cs4)c(C(C4CC4)C4CC4)c3Cc3ccc(S(N)(=O)=O)c(F)c3)c2)s1 [Compound 89, 2-(5-(Dicyclopropylmethyl)-4-(3-fluoro-4-sulfamoylbenzyl)-3-(3-((5-methylthiophen-2-yl)ethynyl)phenyl)-1H-pyrazol-1-yl)thiazole-4-carboxylic Acid] | 5270 | 1860 | 1220 | 3180 | 26400 | –
Cc1ccc(C#Cc2cccc(-c3nn(-c4nc(C(=O)O)cs4)c(CCC4CC4)c3Cc3ccc(S(N)(=O)=O)c(F)c3)c2)s1 [Compound 75, 2-(5-(2-Cyclopropylethyl)-4-(3-fluoro-4-sulfamoylbenzyl)-3-(3-((5-methylthiophen-2-yl)ethynyl)phenyl)-1H-pyrazol-1-yl)thiazole-4-carboxylic Acid] | – | – | – | – | – | clearance at 24 h [6]: 18.6 mL/min/kg
NS(=O)(=O)c1ccc(Cc2c(-c3cccc(C#Cc4ccc(C5CC5)s4)c3)nn(-c3nc(C(=O)O)cs3)c2CC2CC2)cc1F [Compound 56, 2-(5-(Cyclopropylmethyl)-3-(3-((5-cyclopropylthiophen-2-yl)-ethynyl)phenyl)-4-(3-fluoro-4-sulfamoylbenzyl)-1H-pyrazol-1-yl)-thiazole-4-carboxylic Acid] | – | – | – | – | – | effect on LDH activity in tumors (in words) [7]: moderate inhibition; inhibition of tumor LDH activity at 6 h postdose ([7]; 6 h): failed to maintain significant inhibition

More lines, main results first:

IC50 (LDHA) [nM] | IC50 (A673 cells [1]) [nM] | IC50 (MiaPaCa-2 cells [3]) [nM] | IC50 [5] [nM] | SMILES | IC50 (A673 cells [2]) [nM] | other results
874 | 685 | 1030 | 708 | Cc1ccc(C#Cc2cccc(-c3nn(-c4nc(C(=O)O)cs4)c(C(C)C4CC4)c3Cc3ccc(S(N)(=O)=O)c(F)c3)c2)s1 (stereo not shown) [Compound 84, 2-(5-(1-Cyclopropylethyl)-4-(3-fluoro-4-sulfamoylbenzyl)-3-(3-((5-methylthiophen-2-yl)ethynyl)phenyl)-1H-pyrazol-1-yl)thiazole-4-carboxylic Acid] | 968 | –
4540 | 18300 | 5140 | 10800 | Cc1ccc(C#Cc2cccc(-c3nn(-c4nc(C(=O)O)cs4)c(C(C)(C)C4CC4)c3Cc3ccc(S(N)(=O)=O)c(F)c3)c2)s1 [Compound 85, 2-(5-(2-Cyclopropylpropan-2-yl)-4-(3-fluoro-4-sulfamoylbenzyl)-3-(3-((5-methylthiophen-2-yl)ethynyl)phenyl)-1H-pyrazol-1-yl)-thiazole-4-carboxylic Acid] | 5900 | –
307 | 346 | 409 | 251 | Cc1ccc(C#Cc2cccc(-c3nn(-c4nc(C(=O)O)cs4)c(CC4(C)CC4)c3Cc3ccc(S(N)(=O)=O)c(F)c3)c2)s1 [Compound 86, 2-(4-(3-Fluoro-4-sulfamoylbenzyl)-5-((1-methylcyclopropyl)-methyl)-3-(3-((5-methylthiophen-2-yl)ethynyl)phenyl)-1H-pyrazol-1-yl)thiazole-4-carboxylic Acid] | 590 | –
160 | 434 | 254 | 142 | Cc1cc(C#Cc2cccc(-c3nn(-c4nc(C(=O)O)cs4)c(CCC4CC4)c3Cc3ccc(S(N)(=O)=O)c(F)c3)c2)cs1 [Compound 77, 2-(5-(2-Cyclopropylethyl)-4-(3-fluoro-4-sulfamoylbenzyl)-3-(3-((5-methylthiophen-3-yl)ethynyl)phenyl)-1H-pyrazol-1-yl)thiazole-4-carboxylic Acid] | 197 | –
39 | 713 | 972 | 398 | C=C(c1cc(-c2nn(-c3nc(C(=O)O)cs3)c(CC3CC3)c2Cc2ccc(S(N)(=O)=O)c(F)c2)ccc1F)C(F)(F)F [Compound 73, 2-(5-(Cyclopropylmethyl)-3-(4-fluoro-3-(3,3,3-trifluoroprop-1-en-2-yl)phenyl)-4-(3-fluoro-4-sulfamoylbenzyl)-1H-pyrazol-1-yl)-thiazole-4-carboxylic Acid] | 16000 | –
1170 | 364 | 515 | 1030 | Cc1ccc(C#Cc2cccc(-c3nn(-c4nc(C(=O)O)cs4)c(C4CC4C4CC4)c3Cc3ccc(S(N)(=O)=O)c(F)c3)c2)s1 (stereo not shown) [Compound 88, 2-(5-([1,1′-Bi(cyclopropan)]-2-yl)-4-(3-fluoro-4-sulfamoylbenzyl)-3-(3-((5-methylthiophen-2-yl)ethynyl)phenyl)-1H-pyrazol-1-yl)thiazole-4-carboxylic Acid] | 4690 | –
